This note sets out measurements from patent publication US12011436B2, “Use of NOX inhibitors for treatment of cancer” (CALLIDITAS THERAPEUTICS SUISSE SA, priority 2017, dated 2024).

This assay concerns 4T1 cancer cells mixed with BALB/C breast CAFs. Description: 4T1 breast cancer cells co-injected with CAFs into the mammary fat pad of mice, NOX4 inhibitor treatment. The conditions noted are these: 4T1+CAF tumours. In kind it is in vivo, mouse. The procedure:
Fourteen (14) days after randomization and if the antitumor activity of NOX4/1 compounds alone or in combination is considered sufficient, tumors from 5 satellite mice per group are collected, weighed and the tumor is cut in 2 fragments. One fragment is cut into slices 4 mm thick and fixed in 4% neutral buffered formalin for 24 to 48 h, and then embedded in paraffin (Histosec®, Merck, Darmstadt, Germany). One fragment is embedded in tissue Freezing Medium (Microm Microtech, France), snap-frozen in isopentane cooled over liquid nitrogen and stored at […] until processing. Immunohistochemical stains for CD3, CD4 and CD8 are performed on paraffin-embedded tissue sections using standard techniques (Biodoxis, France). The number of CD3, CD4 and CD8 immunopositive cells per field are counted. When 4T1 cancer cells (0.5×105) are used, those are injected in PBS s.c into the upper mammary fat pad of female mice aged 8-10 weeks. Cells are either injected on their own, or mixed with 2.5×105 BALB/C breast CAFs isolated from transgenic BALBneuT spontaneous stromal-rich breast tumours. […] GKT137831 was reconstituted in 1.2% Methyl Cellulose (Sigma) with 0.1% Polysorbate (Sigma) and administered by oral gavage 5×/week at 40 mg/kg. Control mice received vehicle by oral gavage. For longer term dosing, 15 initial doses were given as stated, but reduced to 3×/week for 3 weeks at 50 mg/kg, then 2×/week for 3 weeks at 60 mg/kg. The anti PD-1 antibody (Bioxcell; RMP1-14) was given via […]) injection. 300 μg of the antibody or the IgG2a isotype control (Bioxcell) were given when tumours were palpable every other day, totaling 3 doses. For the data presented under FIG. 1, tumours were measured every 2-3 days by electronic skin caliper from longest width and length. Tumour volume was calculated using the formula 4/3πXr3, where the radius (r) was calculated from tumour width and length measurement to provide an average diameter value. Mice were randomized into groups based on tumour volume so that no statistical difference occurred between mean tumour volumes between groups before treatments began. […]

With `CN(C)c1cccc(-c2c3c(=O)n(-c4ccccc4Cl)[nH]c3cc(=O)n2C)c1` [GKT, 2-(2-chlorophenyl)-4-[3-(dimethylamino)phenyl]-5-methyl-1H-pyrazolo [4,3-c]pyridine-3,6(2H,5H)-dione], the “SMA-positive CAF in tumours (immunochemistry)” value (FIG. 1B) is on record as “significantly reduces”. The “CD8+ T-cell location in tumour (immunochemistry)” value (FIG. 1C) is reported as “relocation of CD8+ T-cells from the tumour edge into the centre of the tumour”. Further, the “tumour volume vs vehicle alone” value (day 15, after 8 days of treatment, oral gavage 40 mg/kg 5x/week, FIG. 1A) was “significantly smaller”.
